The source of these data is article PMC3265371 (Nature Communications, 2011).

Like-named read-outs stand apart in the source and are kept apart here.

Data set [1] deals with T1, CNGA1-ΔCLZ (homomeric channel) (Bos taurus, UniProt Q00194, DEL609-693).
T1 sequence (Q00194 1-608): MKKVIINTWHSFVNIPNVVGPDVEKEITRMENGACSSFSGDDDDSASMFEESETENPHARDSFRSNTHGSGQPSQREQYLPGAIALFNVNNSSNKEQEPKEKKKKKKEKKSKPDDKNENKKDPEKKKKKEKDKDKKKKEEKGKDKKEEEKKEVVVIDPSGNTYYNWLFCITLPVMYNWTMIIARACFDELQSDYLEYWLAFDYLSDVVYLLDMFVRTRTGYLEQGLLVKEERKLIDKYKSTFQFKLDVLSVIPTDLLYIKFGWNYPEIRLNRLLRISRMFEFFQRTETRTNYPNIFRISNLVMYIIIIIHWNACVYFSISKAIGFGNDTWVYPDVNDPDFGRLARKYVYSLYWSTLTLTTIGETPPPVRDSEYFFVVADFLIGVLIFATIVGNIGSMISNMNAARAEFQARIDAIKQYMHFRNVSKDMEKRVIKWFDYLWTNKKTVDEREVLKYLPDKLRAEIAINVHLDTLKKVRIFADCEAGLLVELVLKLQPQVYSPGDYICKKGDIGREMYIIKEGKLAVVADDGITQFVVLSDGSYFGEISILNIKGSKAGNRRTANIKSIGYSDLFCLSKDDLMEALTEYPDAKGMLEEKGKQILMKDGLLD
Put plainly: inside-out patch clamp, block of cGMP-activated current. It is filed as cell-based. On the technique in general: The patch-clamp technique gives a direct electrical read-out from membranes.

In a further data set the target is CNGA1+CNGB1-ΔN (Bos taurus, UniProt Q00194+Q28181, DEL2-765). The description is as above. Format: cell-based.
In data set [2] the target is CNGA1+CNGB1 (heteromeric rod CNG channel) (Bos taurus, UniProt Q00194+Q28181). The data set is described as above. Format: cell-based.
Data set [3] deals with T2, CNGA1 (homomeric channel) (Bos taurus, UniProt Q00194).
T2 sequence (Q00194 1-690): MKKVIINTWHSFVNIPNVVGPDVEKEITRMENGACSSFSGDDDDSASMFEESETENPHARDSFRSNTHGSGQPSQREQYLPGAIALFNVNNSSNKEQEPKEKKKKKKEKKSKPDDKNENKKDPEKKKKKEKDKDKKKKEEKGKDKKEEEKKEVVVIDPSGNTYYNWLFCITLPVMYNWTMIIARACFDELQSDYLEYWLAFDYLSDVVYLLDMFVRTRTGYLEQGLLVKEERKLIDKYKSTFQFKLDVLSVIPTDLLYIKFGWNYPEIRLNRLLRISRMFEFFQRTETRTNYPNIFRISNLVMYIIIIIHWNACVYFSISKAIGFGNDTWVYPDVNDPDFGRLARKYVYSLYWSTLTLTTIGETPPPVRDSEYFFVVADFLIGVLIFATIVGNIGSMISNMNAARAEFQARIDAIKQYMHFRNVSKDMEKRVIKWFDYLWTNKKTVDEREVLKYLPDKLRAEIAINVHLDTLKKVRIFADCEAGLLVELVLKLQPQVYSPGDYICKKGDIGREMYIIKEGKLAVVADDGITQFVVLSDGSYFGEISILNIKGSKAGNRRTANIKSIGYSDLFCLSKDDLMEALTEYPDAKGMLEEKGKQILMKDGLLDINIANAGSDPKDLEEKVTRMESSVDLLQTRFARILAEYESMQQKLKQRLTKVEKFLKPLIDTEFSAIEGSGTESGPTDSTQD
The data set is described as above. It is filed as cell-based.

The target of data set [4] is T2, CNGA1 (homomeric channel). Put plainly: inside-out patch clamp, activated current. It is filed as biochemical. To be noted: 2.5 mM cGMP, ±60 mV, pH 7.2; activation, saturating.
Data set [5] concerns the molecule itself.
The data set “SEC-MALS” deals with the molecule itself. Put plainly: SEC-MALS. For orientation: In gel filtration, larger molecules generally elute earlier.

Chain of CNGA1+CNGB1-ΔN (Q28181 766-1394, stated change not applied, one chain of several): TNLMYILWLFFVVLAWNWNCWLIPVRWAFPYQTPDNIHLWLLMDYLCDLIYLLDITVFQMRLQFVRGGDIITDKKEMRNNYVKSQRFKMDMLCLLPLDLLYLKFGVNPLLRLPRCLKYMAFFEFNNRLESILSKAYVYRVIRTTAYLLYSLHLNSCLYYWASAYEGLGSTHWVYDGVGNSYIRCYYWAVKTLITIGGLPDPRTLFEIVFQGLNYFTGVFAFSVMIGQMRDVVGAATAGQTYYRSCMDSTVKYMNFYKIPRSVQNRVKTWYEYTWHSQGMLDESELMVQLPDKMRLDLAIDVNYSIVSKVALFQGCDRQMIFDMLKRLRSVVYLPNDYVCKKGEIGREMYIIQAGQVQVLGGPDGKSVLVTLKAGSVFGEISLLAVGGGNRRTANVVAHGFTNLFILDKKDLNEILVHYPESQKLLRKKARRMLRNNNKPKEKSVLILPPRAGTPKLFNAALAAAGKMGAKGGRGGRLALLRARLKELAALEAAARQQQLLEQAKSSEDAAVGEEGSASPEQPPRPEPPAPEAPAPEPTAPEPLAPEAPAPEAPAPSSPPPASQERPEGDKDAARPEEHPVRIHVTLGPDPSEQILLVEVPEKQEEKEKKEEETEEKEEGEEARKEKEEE
Chain of CNGA1+CNGB1 (heteromeric rod CNG channel) (Q28181 whole entry, one chain of several): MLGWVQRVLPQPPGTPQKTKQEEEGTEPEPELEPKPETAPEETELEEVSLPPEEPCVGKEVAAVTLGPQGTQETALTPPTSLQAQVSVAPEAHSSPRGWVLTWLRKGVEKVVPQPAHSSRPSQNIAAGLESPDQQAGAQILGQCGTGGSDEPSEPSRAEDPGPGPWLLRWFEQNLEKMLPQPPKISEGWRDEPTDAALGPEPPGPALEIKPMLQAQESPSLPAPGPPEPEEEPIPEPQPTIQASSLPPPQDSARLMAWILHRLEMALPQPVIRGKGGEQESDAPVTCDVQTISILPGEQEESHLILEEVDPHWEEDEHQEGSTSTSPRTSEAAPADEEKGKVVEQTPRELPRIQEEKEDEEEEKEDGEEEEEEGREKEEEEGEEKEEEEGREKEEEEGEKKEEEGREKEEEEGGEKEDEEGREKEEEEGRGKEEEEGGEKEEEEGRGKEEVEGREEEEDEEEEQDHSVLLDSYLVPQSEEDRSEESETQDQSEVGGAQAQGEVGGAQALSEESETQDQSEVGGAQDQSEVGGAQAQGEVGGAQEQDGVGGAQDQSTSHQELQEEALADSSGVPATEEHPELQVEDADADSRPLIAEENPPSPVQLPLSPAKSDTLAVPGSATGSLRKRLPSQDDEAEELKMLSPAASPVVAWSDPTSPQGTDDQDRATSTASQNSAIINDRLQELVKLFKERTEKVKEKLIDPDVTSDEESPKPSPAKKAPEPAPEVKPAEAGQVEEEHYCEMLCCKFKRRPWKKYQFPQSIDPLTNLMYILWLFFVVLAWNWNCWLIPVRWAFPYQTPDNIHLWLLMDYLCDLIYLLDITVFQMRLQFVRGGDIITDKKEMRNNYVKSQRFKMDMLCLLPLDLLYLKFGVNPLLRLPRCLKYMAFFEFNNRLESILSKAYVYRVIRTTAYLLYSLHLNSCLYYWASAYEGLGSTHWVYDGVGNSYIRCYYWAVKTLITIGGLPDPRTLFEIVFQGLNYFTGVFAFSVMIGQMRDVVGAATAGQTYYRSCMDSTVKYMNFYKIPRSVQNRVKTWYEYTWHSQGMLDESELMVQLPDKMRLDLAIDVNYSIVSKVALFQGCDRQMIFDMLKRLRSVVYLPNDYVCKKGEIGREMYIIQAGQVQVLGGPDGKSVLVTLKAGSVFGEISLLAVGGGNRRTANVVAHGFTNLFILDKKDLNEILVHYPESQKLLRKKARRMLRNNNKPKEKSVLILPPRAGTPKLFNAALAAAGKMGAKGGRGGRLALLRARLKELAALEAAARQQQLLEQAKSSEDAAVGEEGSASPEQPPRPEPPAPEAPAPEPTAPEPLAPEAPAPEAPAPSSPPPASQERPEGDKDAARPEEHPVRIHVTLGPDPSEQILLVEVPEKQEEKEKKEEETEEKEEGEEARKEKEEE

`COc1ccc([C@H]2Sc3ccccc3N(CCN(C)C)C(=O)[C@H]2OC(C)=O)cc1` [L-cis-diltiazem]: the IC50 – broadly, the concentration needed to halve the response being measured – in data set [1] came to 164 ± 8.2 µM; against CNGA1+CNGB1-ΔN, 1.4 ± 0.21 µM; in data set [2] it was 2.45 ± 0.28 µM; in data set [3], 174 ± 7.2 µM.
For the molecule `Nc1nc2c(ncn2[C@@H]2O[C@@H]3COP(=O)(O)O[C@H]3[C@H]2O)c(=O)[nH]1` [cGMP], the “inside-out patch clamp, activated current” value in data set [4] is listed as “Homomeric channels of CNGA1 subunits are efficiently activated by saturating cGMP”.
As to LEEKVTRMESSVDLLQTRFARILAEYESMQQKLKQRLTKVEKFLKPL (domain or fragment, bovine, UniProt Q00194 621-667, looked up) [CNGA1#621–667], in data set [5], the stoichiometry N (in general, the number of molecules, sites or subunits per partner or assembly) stood at 3.
In the case of LEEKVEQLGSSLDTLQTRFARLLAEYNATQMKMKQRLSQLESQVKGG (domain or fragment, human, UniProt Q16281 626-672, looked up) [CNGA3#626–672], the “stoichiometry N” value in data set [5] is 3.

B1: CNGA3#626–694 (domain or fragment, human, UniProt Q16281 626-694, looked up)
chain: LEEKVEQLGSSLDTLQTRFARLLAEYNATQMKMKQRLSQLESQVKGGGDKPLADGEVPGDATKTEDKQQ
On to B1, for which, in “SEC-MALS”, the “stoichiometry N” value came out at 3.

B2: CNGA1#621–690 (domain or fragment, bovine, UniProt Q00194 621-690, looked up)
chain: LEEKVTRMESSVDLLQTRFARILAEYESMQQKLKQRLTKVEKFLKPLIDTEFSAIEGSGTESGPTDSTQD
On to B2, for which, in the data set “SEC-MALS”, the “stoichiometry N” value was 3.
